Measured values as given in patent US9255094B2, “Pyrido[4,3-B]indoles and methods of use” (Medivation Technologies, Inc., priority 2009, dated 2016).

How the values were obtained:
[1] = target: T1, human recombinant serotonin (5-Hydroxytryptamine) 5-HT2A receptor (Homo sapiens, UniProt P28223); assay: Serotonin 5-HT2A radioligand binding assay ([3H]Ketanserin); details: 0.5 nM [3H]Ketanserin, CHO-K1 cells; for inhibition at 1 µM: read-out: Percent Inhibition of ligand binding, Serotonin (1 μM) 5-HT2A
T1 construct: expressed in transfected cells; host or cells: Chinese hamster ovary (CHO-K1) cells
T1 sequence (P28223 whole entry): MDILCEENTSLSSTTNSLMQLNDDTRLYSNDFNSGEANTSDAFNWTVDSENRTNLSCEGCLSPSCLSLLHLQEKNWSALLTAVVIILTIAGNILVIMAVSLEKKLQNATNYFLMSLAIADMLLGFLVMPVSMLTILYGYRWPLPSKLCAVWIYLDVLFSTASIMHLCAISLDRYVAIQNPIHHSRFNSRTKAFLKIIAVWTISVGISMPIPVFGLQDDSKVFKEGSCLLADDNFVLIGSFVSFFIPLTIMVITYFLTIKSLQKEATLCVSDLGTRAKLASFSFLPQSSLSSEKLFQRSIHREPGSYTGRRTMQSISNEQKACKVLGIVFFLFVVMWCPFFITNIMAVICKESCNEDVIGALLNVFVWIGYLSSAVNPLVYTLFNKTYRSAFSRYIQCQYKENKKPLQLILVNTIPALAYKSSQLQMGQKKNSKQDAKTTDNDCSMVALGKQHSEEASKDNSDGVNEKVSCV
Protocol: (§1) Compounds of the invention were incubated with 0.5 nM [^3H]Ketanserin for 60 min at 25° C. Non-specific binding was estimated in the presence of 1 μM Mianserin. Receptor proteins were filtered and washed, the filters were then counted to determine [^3H]Ketanserin specifically bound. Compounds were screened at 1 μM or lower, using 1% DMSO as vehicle. Biochemical assay results are presented as the percent inhibition of specific binding in Table 4.

[2] = target: T2, human recombinant adrenergic α1D receptor (Homo sapiens, UniProt P25100); assay: Adrenergic α1D radioligand binding assay ([3H]Prozosin); details: compound at 1 μM; 0.6 nM [3H]Prozosin; HEK-293 cells; read-out: Percent Inhibition of ligand binding, Adrenergic (1 μM) a1D
T2 construct: expressed in transfected cells; host or cells: human embryonic kidney (HEK-293) cells
T2 sequence (P25100 1-572): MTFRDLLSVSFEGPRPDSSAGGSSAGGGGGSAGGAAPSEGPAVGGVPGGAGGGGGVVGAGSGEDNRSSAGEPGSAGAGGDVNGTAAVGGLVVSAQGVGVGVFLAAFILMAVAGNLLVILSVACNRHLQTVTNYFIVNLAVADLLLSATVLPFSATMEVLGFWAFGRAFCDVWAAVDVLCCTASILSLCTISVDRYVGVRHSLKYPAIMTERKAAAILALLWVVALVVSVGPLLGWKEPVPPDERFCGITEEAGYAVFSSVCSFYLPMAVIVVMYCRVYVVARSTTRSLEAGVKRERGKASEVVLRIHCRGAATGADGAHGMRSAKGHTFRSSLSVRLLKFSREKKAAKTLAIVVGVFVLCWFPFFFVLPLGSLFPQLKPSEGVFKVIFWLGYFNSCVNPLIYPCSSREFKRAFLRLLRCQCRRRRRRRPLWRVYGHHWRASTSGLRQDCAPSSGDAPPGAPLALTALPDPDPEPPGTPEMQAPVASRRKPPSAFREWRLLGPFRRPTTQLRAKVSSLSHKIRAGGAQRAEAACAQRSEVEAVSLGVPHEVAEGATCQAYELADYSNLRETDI
Protocol: Compounds of invention were incubated with 0.6 nM [^3H]Prozosin for 60 min at 25° C. Non-specific binding was estimated in the presence of 10 μM phentolamine Receptor proteins were filtered and washed, the filters were then counted to determine [^3H]Prozosin specifically bound.

[3] = target: human recombinant serotonin (5-Hydroxytryptamine) 5-HT7 receptor (Homo sapiens, UniProt P34969); assay: Serotonin 5-HT7 radioligand binding assay ([3H]LSD); details: compound at 1 μM; 5.5 nM [3H]LSD; CHO cells
Sequence of human recombinant serotonin (5-Hydroxytryptamine) 5-HT7 receptor (P34969 whole entry): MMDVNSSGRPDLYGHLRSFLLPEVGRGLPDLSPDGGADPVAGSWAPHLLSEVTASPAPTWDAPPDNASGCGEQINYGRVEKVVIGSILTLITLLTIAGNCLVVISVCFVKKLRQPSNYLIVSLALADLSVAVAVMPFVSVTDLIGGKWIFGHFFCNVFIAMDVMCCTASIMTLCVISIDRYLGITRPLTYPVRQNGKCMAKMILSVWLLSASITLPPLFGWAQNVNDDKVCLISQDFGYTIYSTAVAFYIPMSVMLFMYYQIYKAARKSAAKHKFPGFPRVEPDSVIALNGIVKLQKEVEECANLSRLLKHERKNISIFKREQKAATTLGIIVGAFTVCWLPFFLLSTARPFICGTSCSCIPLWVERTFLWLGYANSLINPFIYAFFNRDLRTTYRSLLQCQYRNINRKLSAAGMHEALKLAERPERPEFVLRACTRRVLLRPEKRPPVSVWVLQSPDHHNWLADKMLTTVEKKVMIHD
Protocol: Compounds of invention were incubated with 5.5 nM [^3H] Lysergic acid diethylamide (LSD) for 2 h at 25° C. […] Receptor proteins were filtered and washed, the filters were then counted to determine [^3H]LSD specifically bound. Compounds were screened at 1 μM or lower, using 1% DMSO as vehicle. Biochemical assay results are presented as the percent inhibition of specific binding in Table 4.

[4] = target: T3, human recombinant serotonin (5-Hydroxytryptamine) 5-HT2C receptor (Homo sapiens, UniProt P28335); assay: Serotonin 5-HT2C radioligand binding assay ([3H]Mesulergine); details: compound at 1 μM; 1 nM [3H]Mesulergine; CHO-K1 cells
T3 construct: expressed in transfected cells; host or cells: Chinese hamster ovary (CHO-K1) cells
T3 sequence (P28335 33-458): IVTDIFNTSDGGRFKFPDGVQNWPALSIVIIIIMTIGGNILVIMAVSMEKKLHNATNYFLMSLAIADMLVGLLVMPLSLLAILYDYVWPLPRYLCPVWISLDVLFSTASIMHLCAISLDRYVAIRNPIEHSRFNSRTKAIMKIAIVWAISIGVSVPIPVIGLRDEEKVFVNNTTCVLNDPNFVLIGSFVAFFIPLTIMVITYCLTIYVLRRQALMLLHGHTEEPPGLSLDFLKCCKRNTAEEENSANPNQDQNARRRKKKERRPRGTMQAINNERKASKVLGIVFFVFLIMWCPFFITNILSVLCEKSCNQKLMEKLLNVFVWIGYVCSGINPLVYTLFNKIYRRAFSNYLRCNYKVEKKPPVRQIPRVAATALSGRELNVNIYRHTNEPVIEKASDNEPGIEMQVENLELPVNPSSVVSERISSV
Protocol: as §1, with “1” for “0.5”, “[^3H]Mesulergine” for “[^3H]Ketanserin”

[5] = target: T4, human recombinant serotonin (5-Hydroxytryptamine) 5-HT6 receptor (Homo sapiens, UniProt P50406); assay: Serotonin 5-HT6 radioligand binding assay ([3H]LSD); details: compound at 1 μM, HeLa cells
T4 construct: expressed in transfected cells; host or cells: human HeLa cells
T4 sequence (P50406 whole entry): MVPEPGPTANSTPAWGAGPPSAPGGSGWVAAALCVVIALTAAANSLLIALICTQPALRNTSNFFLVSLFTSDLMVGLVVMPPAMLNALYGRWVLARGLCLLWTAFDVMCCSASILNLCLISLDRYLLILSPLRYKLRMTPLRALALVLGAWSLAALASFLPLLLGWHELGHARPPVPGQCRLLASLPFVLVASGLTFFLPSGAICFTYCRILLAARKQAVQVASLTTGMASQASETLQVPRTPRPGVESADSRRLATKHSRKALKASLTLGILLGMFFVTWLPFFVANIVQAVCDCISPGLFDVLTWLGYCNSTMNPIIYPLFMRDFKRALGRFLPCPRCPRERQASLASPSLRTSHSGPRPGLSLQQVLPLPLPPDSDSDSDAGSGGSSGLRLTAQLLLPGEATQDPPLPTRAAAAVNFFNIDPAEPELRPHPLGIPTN
Protocol: Compounds of the invention were incubated with 1.5 nM [3H]Lysergic acid diethylamide (LSD) for 120 min at 37° C. […] Receptor proteins were filtered and washed, the filters were then counted to determine [3H]LSD specifically bound. Compounds were screened at 1 μM or lower, using 1% DMSO as vehicle. Biochemical assay results are presented as the percent inhibition of specific binding in Table 4.

[6] = target: human recombinant histamine H1 receptor (Homo sapiens, UniProt P35367); assay: Histamine H1 radioligand binding assay ([3H]Pyrilamine); details: compound at 1 μM, receptor expressed in CHO cells
Sequence of human recombinant histamine H1 receptor (P35367 whole entry): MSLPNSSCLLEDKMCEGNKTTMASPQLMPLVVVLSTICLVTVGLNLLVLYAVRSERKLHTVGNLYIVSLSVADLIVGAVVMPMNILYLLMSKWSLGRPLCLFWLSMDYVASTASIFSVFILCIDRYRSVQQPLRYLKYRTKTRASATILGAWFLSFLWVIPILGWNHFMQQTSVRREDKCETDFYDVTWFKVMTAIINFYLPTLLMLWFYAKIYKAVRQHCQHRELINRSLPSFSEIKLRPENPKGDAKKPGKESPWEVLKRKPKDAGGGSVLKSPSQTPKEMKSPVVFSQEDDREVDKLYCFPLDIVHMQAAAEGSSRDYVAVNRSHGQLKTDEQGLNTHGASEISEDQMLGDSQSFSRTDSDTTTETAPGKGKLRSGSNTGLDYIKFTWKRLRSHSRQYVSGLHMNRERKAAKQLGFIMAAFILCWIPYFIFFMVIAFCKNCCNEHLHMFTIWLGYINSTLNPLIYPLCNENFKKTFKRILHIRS
Protocol: To evaluate in radioligand binding assays the activity of compounds of the invention, human recombinant histamine H1 receptor expressed in Chinese hamster ovary (CHO) cells (De Backer, M. D. et al., Biochem. Biophys. Res. Comm. 197(3):1601, 1993) in a modified Tris-HCl buffer (50 mM Tris-HCl, pH 7.4, 2 mM MgCl2, 100 mM NaCl, 250 mM Sucrose) was used. Compounds of the invention were incubated with 1.2 nM [^3H]Pyrilamine for 180 min at 25° C. Non-specific binding was estimated in the presence of 1 μM pyrilamine Receptor proteins were filtered and washed, the filters were then counted to determine [^3H]Pyrilamine specifically bound. Compounds were screened at 1 μM or lower, using 1% DMSO as vehicle. Biochemical assay results are presented as the percent inhibition of specific binding in Table 2.

[7] = target: T5, human recombinant adrenergic α2C receptor (Homo sapiens, UniProt P18825); assay: Adrenergic α2C radioligand binding assay ([3H]MK-912); details: compound at 0.1 μM; 1 nM [3H]MK-912; insect Sf9 cells; read-out: Percent Inhibition of ligand binding, Adrenergic (0.1 μM) a2C
T5 construct: expressed in transfected cells; host or cells: insect Sf9 cells
T5 sequence (P18825 1-462): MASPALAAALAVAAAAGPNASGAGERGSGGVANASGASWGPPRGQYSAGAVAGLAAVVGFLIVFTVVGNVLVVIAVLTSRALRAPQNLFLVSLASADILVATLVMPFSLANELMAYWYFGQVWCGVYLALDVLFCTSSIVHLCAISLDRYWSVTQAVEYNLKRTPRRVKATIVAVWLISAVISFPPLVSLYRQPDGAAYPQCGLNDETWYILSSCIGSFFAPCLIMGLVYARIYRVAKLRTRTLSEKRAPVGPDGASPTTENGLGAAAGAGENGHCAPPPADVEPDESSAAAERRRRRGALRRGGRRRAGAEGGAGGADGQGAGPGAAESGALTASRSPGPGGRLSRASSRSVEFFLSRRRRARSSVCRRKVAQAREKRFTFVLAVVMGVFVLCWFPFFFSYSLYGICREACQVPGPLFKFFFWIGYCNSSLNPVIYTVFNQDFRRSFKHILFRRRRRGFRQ
Protocol: To evaluate in radioligand binding assays the activity of compounds of the invention, human recombinant adrenergic α2C receptor expressed in insect Sf9 cells (Uhlen S et al. J. Pharmacol. Exp. Ther. 271:1558, 1994) in a modified Tris-HCl buffer (50 mM Tris-HCl, pH 7.4, 12.5 mM MgCl2, 2 mM EDTA) is used. Compounds of the invention are incubated with 1 nM [^3H]MK-912 for 60 min at 25° C. Non-specific binding is estimated in the presence of 10 μM WB-4101. Receptor proteins are filtered and washed, the filters are then counted to determine [^3H]MK-912 specifically bound. Compounds are screened at 1 μM or lower, using 1% DMSO as vehicle. Compounds of the invention are tested in this biochemical assay and percent inhibition of specific binding is determined.

[8] = target: T6, rat adrenergic α1A receptor (Rattus norvegicus, UniProt P43140); assay: Adrenergic α1A radioligand binding assay ([3H]Prozosin); details: compound at 0.1 μM; 0.25 nM [3H]Prozosin; Wistar Rat submaxillary glands; read-out: Percent Inhibition of ligand binding, Adrenergic (0.1 μM) a1A
T6 construct: from tissue; host or cells: Wistar Rat submaxillary glands
T6 sequence (P43140 1-466): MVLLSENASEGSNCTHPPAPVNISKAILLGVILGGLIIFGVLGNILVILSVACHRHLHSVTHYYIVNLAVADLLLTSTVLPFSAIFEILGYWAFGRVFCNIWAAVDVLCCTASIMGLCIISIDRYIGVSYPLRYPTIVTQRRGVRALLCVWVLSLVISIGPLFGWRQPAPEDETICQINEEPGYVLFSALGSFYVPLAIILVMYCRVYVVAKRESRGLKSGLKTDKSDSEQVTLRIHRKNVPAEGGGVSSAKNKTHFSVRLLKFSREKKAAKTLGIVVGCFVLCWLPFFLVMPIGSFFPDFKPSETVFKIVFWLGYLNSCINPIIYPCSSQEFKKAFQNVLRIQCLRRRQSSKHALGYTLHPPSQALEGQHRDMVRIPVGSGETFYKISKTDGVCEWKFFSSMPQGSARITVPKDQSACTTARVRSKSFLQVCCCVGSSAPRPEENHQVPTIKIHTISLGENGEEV
Protocol: To evaluate in radioligand binding assays the activity of compounds of the invention, rat adrenergic α1A receptor obtained from Wistar Rat submaxillary glands (Michel, A. D. et al., Br. J. Pharmacol. 98:883, 1989) in a modified Tris-HCl buffer (50 mM Tris-HCl buffer, pH 7.4, 0.5 mM EDTA) is used. Compounds of the invention are incubated with 0.25 nM [^3H]Prozosin for 60 min at 25° C. Non-specific binding is estimated in the presence of 10 μM phentolamine. Receptor proteins are filtered and washed, the filters are then counted to determine [^3H]Prozosin specifically bound. Compounds of the invention are screened at 1 μM or lower, using 1% DMSO as vehicle. Compounds of the invention are tested in this biochemical assay and percent inhibition of specific binding is determined.

SMILES | Percent Inhibition of ligand binding, Serotonin (1 μM) 5-HT2A ([1]; compound at 1 μM) [%] | inhibition at 1 µM ([1]; compound at 1 μM) [%] | inhibition at 1 µM [2] [%] | Percent Inhibition of ligand binding, Serotonin (1 μM) 5-HT7 [3] [%] | Percent Inhibition of ligand binding, Serotonin (1 μM) 5-HT2C [4] [%] | Percent Inhibition of ligand binding, Serotonin (1 μM) 5-HT6 [5] [%] | Binding Data (% Inhibition) Histamine Binding (1μM) H1 [6] [%] | inhibition at 0.1 µM [7] [%] | inhibition at 0.1 µM [8] [%] | inhibition at 0.1 µM ([1]; compound at 0.1 μM, read-out: Percent Inhibition of ligand binding, Serotonin (0.1 μM) 5-HT2A) [%]
COc1ccc(C(C)(O)Cn2c3c(c4cc(C)ccc42)CN(C)CC3)cc1 (stereo not shown) [Compound 1-4, 1-(2,8-dimethyl-3,4-dihydro-1H-pyrido[4,3-b]indol-5(2H)-yl)-2-(4-methoxyphenyl)propan-2-ol] | 100 | 97 | 57 | 98 | 98 | 87 | 43 |  |  | 
CN1CCc2c(c3cccc(Cl)c3n2CC(C)(O)c2ccncc2)C1 (stereo not shown) [Compound 1-10, 1-(6-chloro-2-methyl-3,4-dihydro-1H-pyrido[4,3-b]indol-5(2H)-yl)-2-(pyridin-4-yl)propan-2-ol] |  | 91 |  |  |  |  |  | 19 | -8 | 
COc1ccc([C@@](C)(O)Cn2c3c(c4cc(C)ccc42)CN(C)CC3)cc1 [Compound 1-19, (R)-1-(2,8-Dimethyl-3,4-dihydro-1H-pyrido[4,3-b]indol-5(2H)-yl)-2-(4-methoxyphenyl)propan-2-ol] |  |  |  |  |  |  |  | 16 | 20 | 98
